Patent US11021442B2, “Process for the preparation of freeze-dried 2-[(3-aminopropyl)amino] ethanethiol formulation” (CLEVEXEL PHARMA, priority 2016, dated 2021)

Assays:
[1] = test system: radiation-induced oral mucositis; assay: Efficacy study, radiation-induced oral mucositis, 20 Gy single fraction (Example F-2); type: in vivo, C57BL/6 mice
Procedure: Female C57BL/6 mice (12 weeks old) purchased from Janvier CERT (Le Genest St. Isle, France) were used after an acclimation time of 7 days. They had free access to food (SAFE reference R0340, Augy, France) and water. They were housed on a 12 hours light/dark cycle at a room temperature of 22° C.±2° C. and a relative humidity of 55%±15%.
Irradiation was carried out locally with a X-ray Varian NDI 226 tube (200 kV, 15 mA, 0.2 mm Cu) at a dose rate of 1.33 Gy/min, the rest of the body being protected by a lead shield. Mice were euthanized when body weight loss exceeded 20% of the initial weight for more than 24 hours or in case of severe clinical signs (ethical endpoints). […]
Two parameters were monitored: the body weight and the Parkins score. This represents an arbitrary score system devised by Parkins and co-workers with separate scores for edema and erythema evaluated by macroscopic observation (Parkins, C. S., Fowler, J. F., and Yu, S. (1983). A murine model of lip epidermal/mucosal reactions to X-irradiation. Radiotherapy and oncology: Journal of the European Society for Therapeutic Radiology and Oncology 1, 159-165). […]
The Parkins score is calculated as follows: “Parkins score”=edema score+erythema score.
A single dose irradiation was delivered to the snout of mice. This induced a mucosal/epidermal lip reaction that was monitored through macroscopic observation and scoring. […]

[2] = test system: radiation-induced oral mucositis; assay: Second efficacy study, radiation-induced oral mucositis, 18 Gy single fraction (Example F-4); type: in vivo, mice
Procedure: The experiment was conducted with gels containing 20, 40 or 80 mg/ml Amifostine (corresponding to 12.5, 25 or 50 mg/ml amifostine thiol respectively). A lower dose of irradiation (a single fraction irradiation of 18 Gy) was delivered to the snout, so that all the mice could be kept alive until the end of the experiment. Different amounts of compound were administered to mice (1; 2 or 4 mg per mouse).
The same experimental procedure as for in example F-2 was used. Briefly, mice were anesthetized, Amifostine or Amifostine thiol was delivered 10 minutes later or not depending on the group (gel application or intravenous injection), mice were irradiated dorsally at an 18 Gy dose 30 minutes after the administration of Amifostine or Amifostine thiol and awakened 20 minutes later.
[…] were allocated to 6 groups: • Control (n=6 mice); • Placebo gel (n=6 mice); • Amifostine thiol 20 mg/ml gel (1 mg amifostine/mouse, n=6 mice); • Amifostine thiol 40 mg/ml gel (2 mg amifostine/mouse, n=6 mice); • Amifostine thiol 80 mg/ml gel (4 mg amifostine/mouse, n=6 mice); and • Amifostine intravenous (IV) (20 mg/ml) (4 mg amifostine/mouse, n=5 mice).
For each group, the development of oral mucositis was evaluated on 5 or 6 mice depending on the group. An 18 Gy dose irradiation induced a less severe phenotype than the 20 Gy dose irradiation that was used in the first efficacy experiment.

[3] = test system: radiation-induced oral mucositis; assay: Third efficacy study, radiation-induced oral mucositis, four fractions of 8 Gy (Example F-6); type: in vivo, mice
Excerpt: Four fractions of 8 Gy were delivered for four consecutive days (everyday from day 0 to day 3; day 0 corresponding to the first day of treatment) to the snout. The fractionation scheme of four fractions of 8 Gy was chosen, because it is biologically equivalent to 1 fraction of 18 Gy (Biologically Effective Dose: BED 120 Gy). […] Thus, the compound was applied 4 times for four consecutive days. For each day, a similar experimental procedure as for in example F-2 was used. […] The same experimental procedure was repeated for 4 consecutive days.

[4] = Stability of lyophilized powder of aminothiol (WR-1065) at 25° C./60% RH under argon; type: physicochemical
Procedure: A stability study is performed to compare stability of: • WR-1065 obtained by conversion of amifostine (350 mg/ml or 500 mg/ml) in acidic condition (respectively HCl 1M or HCl 4M), diluted in water or in P407/P188 mixture and then lyophilized (based on examples described in parts A & B), and • WR-1065 hydrochloride salt crystalline powder.
Stability is assessed by analysis of samples stored under argon atmosphere at 25° C./60% RH. The aim of argon is to provide two materials under same stability condition.

[5] = T1m-25° C./60% RH, under argon atm.
[6] = T15d-25° C./60% RH, under argon atm.

Row | Amifostine ([4]; T0, under argon atm.) [%] | Aminothiol ([4]; T0, under argon atm.) [%] | Disulfides ([4]; T0, under argon atm.) [%] | Unknow ([4]; T0, under argon atm.) | Amifostine [4, 5] [%] | Aminothiol [4, 5] [%] | Disulfides [4, 5] [%] | Unknow [4, 5] [%] | Amifostine [4, 6] [%] | Aminothiol [4, 6] [%] | Disulfides [4, 6] [%] | Unknow [4, 6] | Structure (SMILES) | effect on development and intensity of mucositis (Parkins score), in words ([1]; 20 Gy single fraction to snout, 4 mg amifostine/mouse 30 minutes before irradiation, thiol gel = Gel n°1, Amifostine gel = Gel n°2) | day after irradiation at which edema and erythema completely disappeared ([1]; 20 Gy single fraction, 4 mg amifostine/mouse IV) [days] | effect on mucositis peak and healing period, in words [2] | day of acute peak of mucosal reaction ([2]; IV 4 mg amifostine/mouse) [days] | Parkins score at the peak of mucosal reaction ([2]; gels 1, 2 or 4 mg amifostine/mouse, IV 4 mg/mouse, 30 minutes before irradiation) | day of acute peak of mucosal reaction ([3]; IV 2 mg amifostine/mouse) [days] | Parkins score at the peak of mucosal reaction ([3]; day 0 to day 3, 2 mg amifostine per mouse before each fraction, thiol gel = Gel n°9)
1 | – | – | – | – | – | – | – | – | – | – | – | – | NCCCNCCSP(=O)(O)O [Amifostine IV, Amifostine] | mucosal reaction of moderate intensity | 20 | healing period was nearly absent | 12 | 2.2 | ~15 | 2.6
2 | 0 | 99.7 | 0.3 | <LOQ | 0 | 99.3 | 0.5 | 0.2 | 0 | 99.6 | 0.4 | <LOQ | NCCCNCCS [WR-1065•2HCl native, 2-[(3-aminopropyl)amino]ethanethiol] | – | – | – | – | – | – | –
